# Data from US20250288561A1, “NEZULCITINIB FOR DELIVERY BY NEBULIZED ORAL INHALATION” (THERAVANCE BIOPHARMA R&D IP, LLC, priority 2022, published 2025).
# Like-named read-outs stand apart in the source and are kept apart here.
# How the values were obtained:
# [1] = Phase 1 open-label study: plasma PK of single inhaled nezulcitinib doses under supplemental oxygenation scenarios; type: in vivo, human; conditions: for AUC % extrap / CL/F / DN AUC0-inf / DN AUC0-t / DN Cmax / Kel / Tmax / AUC(0-inf) / Cmax / AUC(0-t) / Vd/F / half-life: plasma; for AUC % extrap / CL/F / DN AUC0-inf / DN AUC0-t / DN Cmax / Kel / AUC(0-inf) / Cmax / AUC(0-t) / Vd/F / half-life: arithmetic mean; for Tmax: median; for Vd/F: read-out: Vz/F; for half-life: read-out: t½ (converted)
# Description: Part A: assessed the plasma PK of nezulcitinib following single inhaled doses administered in the setting of various supplemental oxygenation scenarios in healthy participants.
# This was a Phase 1, open-label, fixed-sequence, 4-period study to evaluate the PK and safety of single inhaled doses of nezulcitinib, administered under different supplemental oxygenation scenarios.
# Participants received a single inhaled dose of nezulcitinib using a nebulizer device on Day 1 of each administration period, under different supplementary oxygenation conditions and under fasting conditions.
# Administrations were as follows: • Administration A (test): 3 mg nezulcitinib delivered by nasal inhalation via the Aerogen Solo integrated with a high-flow nasal cannula circuit delivering supplemental oxygen at a flow rate of 30 L/min. • Administration B (reference): 3 mg nezulcitinib delivered by oral inhalation via the Aerogen Solo coupled with the Aerogen Ultra handheld device, in the presence of supplemental oxygen delivery via low-flow nasal cannula at 6 L/min. • Administration C (test): 3 mg nezulcitinib delivered by oral inhalation via the Aerogen Solo coupled with the Aerogen Ultra handheld device, in the presence of supplemental oxygen delivery via high-flow nasal cannula at a flow rate of 30 L/min. • Administration D1 (test): 3 mg nezulcitinib delivered by oral inhalation via the Aerogen Solo coupled with the Aerogen Ultra handheld device, in the presence of supplemental oxygen delivery via high-flow nasal cannula at a flow rate of 50 L/min. • Administration D2 (test): 9 mg nezulcitinib delivered by oral inhalation via the Aerogen Solo coupled with the Aerogen Ultra handheld device, in the presence of supplemental oxygen delivery via high-flow nasal cannula at a flow rate of 50 L/min.
# Serial blood samples were collected prior to and until 48 hours following dosing on Day 1 of each period to determine the concentration of nezulcitinib in plasma.
# The following non-compartmental PK parameters were calculated for nezulcitinib, as appropriate:
# • AUC0-t: The area under the concentration time curve, from time 0 to the last observed non-zero concentration, as calculated by the linear trapezoidal method. • AUC0-24: The area under the concentration time curve, from time 0 to the 24 hour time point, as calculated by the linear trapezoidal method. • AUC0-inf: The area under the concentration time curve from time 0 extrapolated to infinity. AUC0-inf was calculated as the sum of AUC0-t plus the ratio of the last measurable plasma concentration to the elimination rate constant. • AUC % extrap: Percent of AUC0-inf extrapolated, represented as (1−AUC0-t/AUC0-inf)*100. • CL/F: Apparent total plasma clearance after oral (extravascular) administration, calculated as Dose/AUC0-inf. • Cmax: Maximum observed concentration. • Tmax: Time to reach Cmax. If the maximum value occurs at more than one time point, Tmax is defined as the first time point with this value. • Kel: Apparent first order terminal elimination rate constant calculated from a semi-log plot of the plasma concentration versus time curve. The parameter was calculated by linear least-squares regression analysis using the maximum number of points in the terminal log-linear phase (e.g., three or more non-zero plasma concentrations). • t1/2: Apparent first-order terminal elimination half-life was calculated as 0.693/Kel. • Vz/F: Apparent volume of distribution during the terminal elimination phase after oral (extravascular) administration, calculated as Dose/(AUC0-inf*Kel).
# [2] = Phase 2 clinical study in subjects infected with COVID: safety; type: in vivo, human
# Description: Compound 1 was well-tolerated. Adverse events and serious adverse events occurred in 34.0% and 9.7% of subjects treated with compound 1, and 41.2% and 15.7% of subjects treated with placebo, respectively. Adverse events of liver abnormalities or disease occurred in 9.7% and 7.8% of subjects treated with compound 1 and placebo, respectively. Serious infections and venous thromboembolism occurred in 1.0% and none of the subjects treated with compound 1, and 2.0% and 4.9% in subjects treated with placebo, respectively.
# [3] = Sulfation metabolism; type: in vitro ADME
# [4] = Administration A: single 3 mg, nasal inhalation via high-flow nasal cannula circuit, oxygen 30 L/min
# [5] = Administration B: single 3 mg, oral inhalation, low-flow nasal cannula oxygen 6 L/min
# [6] = Administration C: single 3 mg, oral inhalation, high-flow nasal cannula oxygen 30 L/min
# [7] = Administration D1: single 3 mg, oral inhalation, high-flow nasal cannula oxygen 50 L/min
# [8] = Administration D2: single 9 mg, oral inhalation, high-flow nasal cannula oxygen 50 L/min
# [9] = human, inhaled or intranasal, 3 mg, Administration A: single 3 mg, nasal inhalation via high-flow nasal cannula circuit, oxygen 30 L/min
# [10] = human, inhaled, 3 mg, Administration B: single 3 mg, oral inhalation, low-flow nasal cannula oxygen 6 L/min
# [11] = human, inhaled, 3 mg, Administration C: single 3 mg, oral inhalation, high-flow nasal cannula oxygen 30 L/min
# [12] = human, inhaled, 3 mg, Administration D1: single 3 mg, oral inhalation, high-flow nasal cannula oxygen 50 L/min
# [13] = human, inhaled, 9 mg, Administration D2: single 9 mg, oral inhalation, high-flow nasal cannula oxygen 50 L/min
smiles,measurement,setting,value
"CCc1cc(O)ccc1-c1ccc2c(-c3nc4c([nH]3)CN(C(C)C)[C@H](C(=O)N3CC(N(C)C)C3)C4)n[nH]c2c1 [Compound 1, (S)-(3-(dimethylamino)azetidin-1-yl)(2-(6-(2-ethyl-4-hydroxyphenyl)-1H-indazol-3-yl)-5-isopropyl-4,5,6,7-tetrahydro-3H-imidazo[4,5-c]pyridin-6-yl)methanone]","plasma concentrations, effect of increasing flow rate from 30 L/min (Administration C) to 50 L/min (Administration D1)",[1]; 3 mg oral inhalation,did not impact the plasma concentrations
same,"plasma concentrations, Administration C compared to Administration A","[1]; 3 mg oral inhalation with high-flow 30 L/min vs 3 mg nasal through the high-flow circuit 30 L/min, FIG. 3",sustained increased plasma concentrations
same,AUC % extrap,[1]; [4],4.451%
same,CL/F,[1]; [4],526.8 L/h
same,DN AUC0-inf,[1]; [4],2.586 ± [ng*hr/mL]/mg
same,DN AUC0-t,[1]; [4],2.480 ± [ng*hr/mL]/mg
same,DN Cmax,[1]; [4],0.5610 ± [ng/mL]/mg
same,Kel,[1]; [4],0.07122 ± 1 h⁻¹
same,Tmax,[1]; [4],1.000 h
same,AUC % extrap,[1]; [5],3.152%
same,CL/F,[1]; [5],287.0 L/h
same,DN AUC0-inf,[1]; [5],18.00 ± [ng*hr/mL]/mg
same,DN AUC0-t,[1]; [5],17.46 ± [ng*hr/mL]/mg
same,DN Cmax,[1]; [5],4.658 ± [ng/mL]/mg
same,Kel,[1]; [5],0.07667 ± 1 h⁻¹
same,AUC % extrap,[1]; [6],3.898%
same,CL/F,[1]; [6],128.9 L/h
same,DN AUC0-inf,[1]; [6],18.24 ± [ng*hr/mL]/mg
same,DN AUC0-t,[1]; [6],17.69 ± [ng*hr/mL]/mg
same,DN Cmax,[1]; [6],4.725 ± [ng/mL]/mg
same,Kel,[1]; [6],0.04804 ± 1 h⁻¹
same,AUC % extrap,[1]; [7],2.813%
same,CL/F,[1]; [7],146.9 L/h
same,DN AUC0-inf,[1]; [7],17.44 ± [ng*hr/mL]/mg
same,DN AUC0-t,[1]; [7],16.94 ± [ng*hr/mL]/mg
same,DN Cmax,[1]; [7],4.649 ± [ng/mL]/mg
same,Kel,[1]; [7],0.06152 ± 1 h⁻¹
same,Tmax,[1]; [7],1.000 h
same,AUC % extrap,[1]; [8],2.727%
same,CL/F,[1]; [8],312.3 L/h
same,DN AUC0-inf,[1]; [8],16.89 ± [ng*hr/mL]/mg
same,DN AUC0-t,[1]; [8],16.53 ± [ng*hr/mL]/mg
same,DN Cmax,[1]; [8],4.858 ± [ng/mL]/mg
same,Kel,[1]; [8],0.05057 ± 1 h⁻¹
same,Tmax,"[1]; human, inhaled, Administration B: single 3 mg, oral inhalation, low-flow nasal cannula oxygen 6 L/min, read-out: Tmax",1 h
same,Tmax,"[1]; human, inhaled, Administration D2: single 9 mg, oral inhalation, high-flow nasal cannula oxygen 50 L/min, read-out: Tmax",1 h
same,AUC(0-inf),[1]; [9],7.76 ng·h/mL
same,Cmax,[1]; [9],1.68 ng/mL
same,AUC(0-t),"[1]; human, inhaled or intranasal, 3 mg, Administration A: single 3 mg, nasal inhalation via high-flow nasal cannula circuit, oxygen 30 L/min, read-out: AUC0-24",7.06 ng·h/mL
same,AUC(0-t),"[1]; human, inhaled or intranasal, 3 mg, Administration A: single 3 mg, nasal inhalation via high-flow nasal cannula circuit, oxygen 30 L/min, read-out: AUC0-t",7.44 ng·h/mL
same,Vd/F,[1]; [9],7400 L
same,half-life,[1]; [9],10.2 h
same,AUC(0-inf),[1]; [10],54 ng·h/mL
same,Cmax,[1]; [10],14 ng/mL
same,AUC(0-t),"[1]; human, inhaled, 3 mg, Administration B: single 3 mg, oral inhalation, low-flow nasal cannula oxygen 6 L/min, read-out: AUC0-24",49.1 ng·h/mL
same,AUC(0-t),"[1]; human, inhaled, 3 mg, Administration B: single 3 mg, oral inhalation, low-flow nasal cannula oxygen 6 L/min, read-out: AUC0-t",52.4 ng·h/mL
same,Vd/F,[1]; [10],1770 L
same,half-life,[1]; [10],12.9 h
same,AUC(0-inf),[1]; [11],54.7 ng·h/mL
same,Cmax,[1]; [11],14.2 ng/mL
same,AUC(0-t),"[1]; human, inhaled, 3 mg, Administration C: single 3 mg, oral inhalation, high-flow nasal cannula oxygen 30 L/min, read-out: AUC0-24",49.9 ng·h/mL
same,AUC(0-t),"[1]; human, inhaled, 3 mg, Administration C: single 3 mg, oral inhalation, high-flow nasal cannula oxygen 30 L/min, read-out: AUC0-t",53.1 ng·h/mL
same,Vd/F,[1]; [11],3920 L
same,half-life,[1]; [11],15.1 h
same,AUC(0-inf),[1]; [12],52.3 ng·h/mL
same,Cmax,[1]; [12],13.9 ng/mL
same,AUC(0-t),"[1]; human, inhaled, 3 mg, Administration D1: single 3 mg, oral inhalation, high-flow nasal cannula oxygen 50 L/min, read-out: AUC0-24",47.9 ng·h/mL
same,AUC(0-t),"[1]; human, inhaled, 3 mg, Administration D1: single 3 mg, oral inhalation, high-flow nasal cannula oxygen 50 L/min, read-out: AUC0-t",50.8 ng·h/mL
same,Vd/F,[1]; [12],1780 L
same,half-life,[1]; [12],12.3 h
same,AUC(0-inf),[1]; [13],152 ng·h/mL
same,Cmax,[1]; [13],43.7 ng/mL
same,AUC(0-t),"[1]; human, inhaled, 9 mg, Administration D2: single 9 mg, oral inhalation, high-flow nasal cannula oxygen 50 L/min, read-out: AUC0-24",141 ng·h/mL
same,AUC(0-t),"[1]; human, inhaled, 9 mg, Administration D2: single 9 mg, oral inhalation, high-flow nasal cannula oxygen 50 L/min, read-out: AUC0-t",149 ng·h/mL
same,Vd/F,[1]; [13],7310 L
same,half-life,[1]; [13],14.1 h
same,"plasma concentration, 9 mg (Administration D2) vs 3 mg (Administration D1)","[1]; oral inhalation, high-flow 50 L/min, FIG. 6",approximately a dose-proportional increase in plasma concentration
same,tolerability,[2],well-tolerated
same,"serious infections, subjects",[2]; placebo 2.0%,1.0%
same,"venous thromboembolism, subjects",[2]; placebo 4.9%,none
same,"adverse events of liver abnormalities or disease, subjects",[2]; placebo 7.8%,9.7%
same,"serious adverse events, subjects",[2]; placebo 15.7%,9.7%
same,"adverse events, subjects",[2]; placebo 41.2%,34.0%
same,sulfation metabolism compared to corresponding fluorinated analog,[3],significantly less sulfation metabolism
same,plasma concentrations with low-flow nasal oxygen therapy compared to healthy subjects without supplemental oxygen therapy,"human, in vivo",similar
same,plasma exposure,phase 2,low
